Laboratory results reported in patent US10010584B2, “Treatment of depressive disorders” (Blanchette Rockefeller Neuroscience Institute, priority 2004, dated 2018).
Where two headings read alike, the source gives them in different places.

Columns and labels:
Adult Wistar rats = assay: Open-space-swimming test; format: in vivo, rat; conditions: for mobility (distance moved) / immobility compared with control group: 10 mg/kg×3 per day, 23, 2 and 1 h before trial sessions, saline control; for percentages of decreases in the distance moved on the third day (using the decrease of control groups as 100%): 10 mg/kg×3 per day i.p., n=8
Method: Adult Wistar rats (180-200 g) were housed in a temperature-controlled (20-24° C.) room for at least a week prior to experimentation, allowed free access to food and water, and kept on a 12-h light/dark cycle. They were randomly assigned to different groups (eight each) and were moved to the test room in their home cages at least 1 h before trials. Rats were individually placed into a round pool with a diameter of 152 cm and height of 60 cm and was filled with 40 cm H2O (22±1° C.). The room and pool are part of the started set-up used for spatial water maze task. (Sun et al. (2002) J. Pharmacol. Exp. Ther. 300: 408-416). The tests for different drug treatment and control groups were in a counterbalanced order. No escape was available in these trials. Rats were free to swim (or not to swim) for 15 min and then removed and returned to their home cage after drying. Observers were obscured from sight of the rats during the trials, but were able to observe the animals' behaviors on a video screen monitor during trials. The same procedure (15 min session per day) was repeated 24 h later and continued for 3 additional days. Drugs were dissolved in a saline solution for test groups and saline alone was used in the control groups. Imipramine (10 mg/kg×3 day, i.p.), iproniazid (10 mg/kg×3 per day, i.p.), mianserin (10 mg/kg×3 per day, i.p.), alaproclate (10 mg/kg×3 per day), or saline were administered between the swimming trial sessions at 23, 2, and 1 h before the second, third, and fourth trial sessions, respectively. The rationale for the three doses before test trials is the more consistent predictive effects than those of a single dose (Porsolt et al. (1977) Nature 266: 730-730-732; Porsolt et al. (1978) Eur J. Pharmacol. 47: 379-391; Poncelet et al, (1986) Psychopharmacology 90: 139-141). The swimming/drifting path was recorded with a video-tracking system that was also used for the spatial water maze task in other studies (Sun et al., 2002; Sun and Alkon, 2002a). The system tracks the animal's position by recording sequential x/y-coordinates of trigger events (video signal above track level) and calculating the distance, in the pool (sample period: 0.055 s) and adds the distance at pre-set intervals (15 min) during each trial. The tracking system, however, neither distinguishes nor determines the duration of any period of mobility or immobility. To evaluate whether the distance moved, as recorded by the tracking system, reflects the duration of active swimming, the investigator(s) also recorded the duration of active swimming on-line via the video screen monitor for a direct comparison of the two parameters.
Depressive behavior in rats was induced by placing the animals in an open-space swimming apparatus, as described herein, for 15 minutes per trial per day. The animals were subjected to three trials over the course of three days. The animals were divided into three groups: control rats (8); phenylalanine rats (10); and imipramine rats (10). The control rats received a single i.v. dose of saline in the tail vein, 3.5 hours before the second trial. […] Rats in the imipramine group received 3 i.p. doses (10 mg/kg) at 23, 2 and 1 hour before the first, second and third trials, respectively.
Depressive behavior in rats was induced by placing the animals in an open-space swimming apparatus, as described herein, for 15 minutes per trial per day. The animals were subjected to three trials over the course of three days. […] The control rats received a single i.v. dose of saline in the tail vein, 3.5 hours before the second trial.

PKC [1] = conditions: cited from earlier work
humans = conditions: cited from earlier work
PKCε = molecular target: T1, PKCε (Homo sapiens, UniProt Q02156); conditions: cited from earlier work
T1 sequence (Q02156 1-737): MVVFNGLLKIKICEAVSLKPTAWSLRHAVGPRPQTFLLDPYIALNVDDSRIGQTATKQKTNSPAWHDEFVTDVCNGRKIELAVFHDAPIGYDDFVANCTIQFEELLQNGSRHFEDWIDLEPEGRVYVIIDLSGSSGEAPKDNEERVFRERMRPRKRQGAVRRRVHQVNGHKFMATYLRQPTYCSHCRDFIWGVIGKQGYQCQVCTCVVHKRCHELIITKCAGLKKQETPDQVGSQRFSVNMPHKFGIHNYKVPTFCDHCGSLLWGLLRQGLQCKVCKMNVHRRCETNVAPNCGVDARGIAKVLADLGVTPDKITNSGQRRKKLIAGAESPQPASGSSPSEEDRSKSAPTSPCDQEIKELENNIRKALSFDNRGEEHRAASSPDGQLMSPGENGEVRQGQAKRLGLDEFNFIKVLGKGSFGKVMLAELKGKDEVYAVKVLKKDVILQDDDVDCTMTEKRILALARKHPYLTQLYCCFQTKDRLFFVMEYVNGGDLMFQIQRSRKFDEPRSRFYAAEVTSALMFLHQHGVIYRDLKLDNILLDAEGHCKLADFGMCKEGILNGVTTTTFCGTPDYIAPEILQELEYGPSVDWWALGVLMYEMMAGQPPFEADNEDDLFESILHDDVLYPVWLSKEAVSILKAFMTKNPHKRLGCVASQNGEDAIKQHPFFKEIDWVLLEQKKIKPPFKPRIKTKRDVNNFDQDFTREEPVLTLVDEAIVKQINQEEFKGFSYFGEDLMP

PKC [2] = conditions: K562 cells; cited from earlier work
[3] = test system: murine leukemias and solid tumors; conditions: cited from earlier work
[4] = test system: cyclin dependent kinase 2 (Cdk2); conditions: at 5 ng/ml; cited from earlier work
PKC [5] = conditions: competes with [3H]phorbol dibutyrate; read-out: Ki for binding; cited from earlier work
[6] = test system: squamous cell carcinoma and melanoma; conditions: used topically; cited from earlier work
PKCa = PKCa (Homo sapiens, UniProt P17252); conditions: cited from earlier work
NCI 60 cell line screen = conditions: cited from earlier work
PKC [7] = conditions: cited from earlier work; remark: listed apart in the source
rats = conditions: forced swimming test, 15 mg/kg×3 per day i.p., n=5; cited from earlier work
protein kinase C = conditions: (−)-enantiomer; cited from earlier work
[8] = (−)-enantiomer; cited from earlier work
[9] = Examples 7-13, present tense, no dose, no data

CC(N)C(=O)OC(C)(C)Cc1ccc(Cl)cc1 (stereo not drawn) [Alaproclate, alaproclate]
duration of active swimming compared with control group (Adult Wistar rats; rats, 10 mg/kg×3 per day): significantly longer
mobility (distance moved) / immobility compared with control group (Adult Wistar rats; rats): effective in reducing the immobility

CCCCCCCC(=O)O[C@H]1/C(=C/C(=O)OC)C[C@H]2C[C@H](CO)OC(=O)C[C@H](O)C[C@@H]3CCC[C@H](C[C@@H]4CCO[C@H](/C=C/C(C)(C)[C@]1(O)O2)O4)O3 [Analog 1]
affinity for PKC (in words) (PKC [1]): highest affinity for PKC
potency relative to bryostatin-1 (PKC [1]): about 100 times
Ki (PKC [1]; read-out: PKC Affin): 0.25 nM

CCC/C=C/C=C/C(=O)O[C@H]1/C(=C/C(=O)OC)C[C@H]2C[C@H]([C@@H](C)O)OC(=O)C[C@H](O)C[C@@H]3C[C@H](OC(C)=O)C(C)(C)[C@](O)(C[C@@H]4C/C(=C/C(=O)OC)C[C@H](/C=C/C(C)(C)[C@]1(O)O2)O4)O3 [Bryostatin 1, bryostatin-1]
difference from imipramine group (10 mg/kg i.p. ×3) (Adult Wistar rats; rats, single i.v. dose 80 μg/kg): No significant difference
immobility compared with control group and imipramine group (Adult Wistar rats; rats, single i.v. dose 80 μg/kg in the tail vein 3.5 hours before the second trial): effective in reducing immobility
main adverse reaction (humans): myalgia

CCCCCC1CC1CC1CC1CCCCCCCC(=O)O (stereo not drawn) [DCP-LA, 2-[(2-pentylcyclopropyl)methyl]cyclopropaneoctanoic acid]
concentration of maximal effect (PKCε; activation of PKCε): 100 nM
isoform selectivity of PKC activation (PKCε): selectively activates PKCε

N[C@@H](Cc1ccccc1)C(=O)O [Effector 2, phenylalanine]
immobility compared with control group and imipramine group (Adult Wistar rats; rats, single i.v. dose in the tail vein 3.5 hours before the second trial): effective in reducing the immobility

N[C@@H](Cc1ccc(O)cc1)C(=O)O [Effector 4, 4-hydroxy phenylalanine]
immobility compared with control group and imipramine group (Adult Wistar rats; [9]): effective in reducing immobility

N[C@@H](Cc1ccc(F)cc1)C(=O)O [Effector 5, 4-fluoro phenylalanine]
immobility compared with control group and imipramine group (Adult Wistar rats; [9]): effective in reducing immobility

c1c[nH]cn1 [Effector 14, Imidazole]
immobility compared with control group and imipramine group (Adult Wistar rats; [9]): effective in reducing immobility

C=C(C)[C@]12C[C@@H](COC(=O)c3ccccc3)[C@@]34OC5(O[C@@H]1[C@@H]3C1O[C@]1(CO)[C@@H](O)[C@@]1(O)[C@H]4[C@@H](C(C)CCCCCC[C@@H]5O)C(C)[C@@H]1OC(=O)c1ccccc1)O2 (stereo partly drawn) [Gnidimacrin]
concentration at which it acts as a PKC activator (PKC [2]): ≈ 3 nM
concentrations of potent antitumor activity [3]: 0.1 to 1 nM
inhibition of Cdk2 [4]: 100%

CC1=C[C@]23C(=O)[C@@H](C=C(COC(=O)c4ccccc4)[C@@H](O)[C@]2(O)[C@H]1OC(=O)c1ccccc1)[C@H]1[C@@H](C[C@H]3C)C1(C)C [Ingenol 3,20-dibenzoate]
Ki (PKC [5]): 240 nM

C/C=C(/C)C(=O)O[C@H]1C(C)=C[C@]23C(=O)[C@@H](C=C(CO)[C@@H](O)[C@]12O)[C@H]1[C@@H](C[C@H]3C)C1(C)C [Ingenol-3-angelate]
antitumor activity [6]: possesses antitumor activity

CC1=CC[C@H](C)C(C)(C)[C@@H]1/C=C/C(C)=C/CC[C@@]1(CO)[C@H](CCCO)/C(=C(/C)C=O)CC[C@]1(C)O [Iripallidal]
Ki (PKCa): 75.6 nM
GI50 (concentration required to inhibit growth by 50%) (NCI 60 cell line screen): from micromolar to nanomolar range

CCCCCCCNS(=O)(=O)c1cccc2c(Cl)cccc12 [SC-10, N-(n-heptyl)-5-chloro-1-naphthalenesulfonamide]
activation of PKC (PKC [7]): activates PKC in a calcium-dependent manner

CCCCCCCC(=O)OC1C(=CC(=O)OC)CC2CC(CO)OC(=O)CC(O)CCOC(C(C)(C)C)CC3CCOC(C=CC(C)(C)C1(O)O2)O3 (stereo not drawn) [bryolog 3]
Ki (PKC [1]; A-ring bryologs, read-out: affinity for PKC): 6.5 nM

CN(C)CCCN1c2ccccc2CCc2ccccc21 [imipramine]
percentages of decreases in the distance moved on the third day (using the decrease of control groups as 100%) (Adult Wistar rats; rats): 49.8±7.6%
immobility % as control (rats): 61.5±6.5%

CC(C)NNC(=O)c1ccncc1 [iproniazid]
percentages of decreases in the distance moved on the third day (using the decrease of control groups as 100%) (Adult Wistar rats; rats): 44.0±7.7%
mobility (distance moved) / immobility compared with control group (Adult Wistar rats; rats): appeared more effective at the dose given than mianserin and imipramine
immobility % as control (rats): 87.6±7.3%

CN1CCN2c3ccccc3Cc3ccccc3C2C1 (stereo not drawn) [mianserin]
percentages of decreases in the distance moved on the third day (using the decrease of control groups as 100%) (Adult Wistar rats; rats): 33.3±6.3%
immobility % as control (rats): 66.5±7.0%

CCCCCCCCc1ccc2c3c(c[nH]c13)C[C@@H](CO)NC(=O)[C@H](C(C)C)N2C [octylindolactam V, Octylindolactam V]
EC50 (protein kinase C): 29 nM
metabolic stability [8]: greater metabolic stability

B1: FGF-18: peptide consisting of 207 amino acids, member of the fibroblast growth factor family (protein, UniProt O76093 28-207, looked up)
Fibroblast growth factor 18: EENVDFRIHVENQTRARDDVSRKQLRLYQLYSRTSGKHIQVLGRRISARGEDGDKYAQLLVETDTFGSQVRIKGKETEFYLCMNRKGKLVGKPDGTSKECVFIEKVLENNYTALMSAKYSGWYVGFTKKGRPRKGPKTRENQQDVHFMKRYPKGQPELQKPFKYTTVTKRSRRIRPTHPA
immobility compared with control group and imipramine group (Adult Wistar rats; [9]): effective in reducing immobility
